Here are results for one molecule from patent US20060258717A1, “ORGANIC COMPOUNDS” (priority 2004, published 2006).

Each structure is given as a SMILES string. Like-named read-outs stand apart in the source and are kept apart here.

For the series, the system named is human umbilical vein endothelial cells (HUVECs). The following applies: for number of tubes (capillary networking) versus control: 24 hours, HUVECs on growth factor-reduced Matrigel, 8 wells, five random fields per well. On the procedure: Various concentrations of compound A (0.1, 1, and 10 μM) are tested to assess the quality of effect of this compound on capillary networking (tube formation) in cultured human umbilical vein endothelial cells (HUVECs) seeded on growth factor-reduced Matrigel. The intensity of capillary networking is evaluated at 24 hours using a phase-contrast microscope. Images are captured and analySYS 3.2 software is used to count the number of tubes in five random fields of each well (8 wells altogether). The effect of the compound is compared to untreated cells grown in cell culture medium (control).

For the molecule `Cc1nccn1Cc1ccccn1` [Compound A, [2-(2-methylimidazol-1-yl)methyl]pyridine], the “number of tubes (capillary networking) versus control” value is listed as “significantly decreases the number of tubes” (1 μM compound) and “significantly decreases the number of tubes” (10 μM compound). Besides, the “cell toxicity (ToxiLight, ATP release from damaged cells)” value (additional study, concentrations not given) is on record as “not related to cell toxicity”.
